Measurements reported in patent publication US12441768B2, “Compositions and methods for treating endometriosis” (EndoMet Biosciences, Inc., priority 2018, dated 2025).
pKd: −log10 of the molar value. Read-outs that look alike come from different tables or passages of the source. Where a SMILES comes first, the peptide text is derived from it.

Target: T1, β-catenin (Homo sapiens, UniProt P35222)
T1 sequence (P35222 1-781): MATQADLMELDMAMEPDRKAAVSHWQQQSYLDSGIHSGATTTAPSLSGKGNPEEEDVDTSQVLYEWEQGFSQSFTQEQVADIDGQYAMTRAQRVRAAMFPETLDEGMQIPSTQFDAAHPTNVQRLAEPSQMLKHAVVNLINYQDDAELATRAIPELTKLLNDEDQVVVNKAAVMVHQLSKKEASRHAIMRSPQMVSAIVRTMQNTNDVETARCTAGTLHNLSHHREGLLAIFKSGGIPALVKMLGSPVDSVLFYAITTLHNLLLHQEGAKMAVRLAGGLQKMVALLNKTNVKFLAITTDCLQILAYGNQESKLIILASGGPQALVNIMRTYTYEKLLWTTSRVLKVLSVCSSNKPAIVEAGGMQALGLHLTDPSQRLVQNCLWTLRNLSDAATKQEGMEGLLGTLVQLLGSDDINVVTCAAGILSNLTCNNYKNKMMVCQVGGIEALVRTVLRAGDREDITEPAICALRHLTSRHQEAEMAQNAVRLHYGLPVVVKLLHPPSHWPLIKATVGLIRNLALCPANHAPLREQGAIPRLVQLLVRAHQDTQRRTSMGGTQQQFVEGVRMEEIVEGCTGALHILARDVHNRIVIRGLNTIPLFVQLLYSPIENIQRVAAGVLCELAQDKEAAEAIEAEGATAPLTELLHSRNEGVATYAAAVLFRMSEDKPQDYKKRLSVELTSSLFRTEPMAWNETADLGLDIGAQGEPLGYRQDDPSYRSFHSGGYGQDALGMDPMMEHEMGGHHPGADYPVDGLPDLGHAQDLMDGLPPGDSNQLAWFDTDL
Assay: KD50 measurement using competitive fluorescence polarization (FP) with labelled TCF4
Assay type: binding
Details: fluorescence polarization, β-catenin
Summary of the method: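 Competitive FP in which unlabelled inhibitor (10 nM to 30 uM dilution series) displaces 5 nM labelled TCF4 from 100 nM β-catenin, room temperature. Read-out ex 470 nm, em 520 nm; experiment repeated three times.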

β-Cat FP Hill slope	pKd (read-out: β-Cat FP KD)	SMILES	pKd (β-Cat FP KD)
0.7	5.00 to 6.00	CC[C@H](C)[C@H](NC(=O)[C@H](CC(C)C)NC(=O)[C@@H](NC(=O)[C@H](Cc1c[nH]c2ccccc12)NC(=O)[C@H](CCSC)N(C)C)[C@@H](C)CC)C(=O)N[C@@H](CO)C(=O)N[C@@H](Cc1ccccc1)C(=O)N[C@@H](Cc1c[nH]c2ccccc12)C(=O)NCC(=O)O [compound 264] (HELM PEPTIDE1{[CSCC[C@@H](C(=O)[*:2])N(C)C].W.I.L.I.S.F.W.G}$$$$V2.0)	–
0.7	5.00 to 6.00	CC[C@H](C)[C@H](NC(=O)[C@H](CC(C)C)NC(=O)[C@@H](NC(=O)[C@@H](N)Cc1c[nH]c2ccccc12)[C@@H](C)CC)C(=O)N[C@@H](C)C(=O)N[C@@H](Cc1ccccc1)C(=O)N[C@@H](Cc1c[nH]c2ccccc12)C(=O)NCC(=O)O [compound 265] (H-WILIAFWG-OH)	–
–	< 4.52	CC[C@H](C)[C@H](NC(=O)[C@H](CC(=O)O)NC(=O)[C@H](CCCNC(=N)N)NC(=O)[C@H](CC(C)C)NC(=O)[C@@H](NC(=O)[C@H](CCC(N)=O)NC(=O)[C@H](CC(C)C)NC(=O)[C@H](CO)NC(=O)[C@H](CCCNC(=N)N)NC(=O)[C@H](CCC(=O)O)NC(=O)[C@H](CCCNC(=N)N)NC(=O)[C@H](Cc1c[nH]cn1)NC(=O)[C@H](CCC(=O)O)NC(=O)[C@H](CC(C)C)NC(=O)[C@H](CCC(N)=O)NC(=O)[C@H](CCC(=O)O)NC(=O)[C@H](CCC(N)=O)NC(=O)[C@H](CO)NC(=O)[C@H](CC(C)C)NC(=O)CNC(=O)[C@H](CC(=O)O)NC(=O)[C@@H]1CCCN1C(=O)[C@H](CC(N)=O)NC(C)=O)[C@@H](C)O)C(=O)N[C@@H](CCC(N)=O)C(=O)N[C@@H](CCCNC(=N)N)C(=O)N[C@@H](CCSC)C(=O)N[C@@H](CC(C)C)C(=O)N[C@@H](Cc1ccccc1)C(=O)N1CCC[C@H]1C(=O)N[C@@H](CC(=O)O)C(=O)N[C@@H](CCC(=O)O)C(=O)N[C@@H](CCCCN)C(=O)N[C@@H](CCC(=O)O)C(=O)N[C@@H](Cc1ccccc1)C(=O)N[C@H](C(=O)NCCC(=O)NCCC(=O)N[C@@H](CCCCN)C(N)=O)[C@@H](C)O [compound 270]	–
0.84	5.00 to 6.00	CC[C@H](C)[C@@H]1NC(=O)[C@H](CC(C)C)NC(=O)[C@H](Cc2ccccc2)NC(=O)[C@H](Cc2c[nH]c3ccccc23)NC(=O)[C@@H](N)CCCCNC(=O)CC[C@@H](C(=O)NCC(=O)O)NC(=O)[C@H](Cc2c[nH]c3ccccc23)NC(=O)[C@H](Cc2ccccc2)NC(=O)[C@H](CS)NC1=O [compound 272] (HELM PEPTIDE1{K.W.F.L.I.C.F.W.E.G}$PEPTIDE1,PEPTIDE1,1:R3-9:R3$$$V2.0)	–
2.2	> 6.40	CC[C@H](C)[C@H](NC(=O)[C@H](CC(C)C)NC(=O)[C@H](Cc1ccccc1)NC(=O)[C@H](Cc1c[nH]c2ccccc12)NC(=O)[C@H](CCSC)NC(C)=O)C(=O)N[C@@H](C)C(=O)N[C@@H](Cc1ccccc1)C(=O)N[C@@H](Cc1c[nH]c2ccccc12)C(=O)NCC(=O)O [compound 274] (Ac-MWFLIAFWG-OH)	–
0.7	< 4.52	CC[C@H](C)[C@@H]1NC(=O)[C@H](CC(C)C)NC(=O)[C@H](Cc2ccc(O)cc2)NC(=O)[C@H](Cc2c[nH]c3ccccc23)NC(=O)[C@H](CCSC)NC(=O)[C@H](CCCNC(=N)N)NC(=O)[C@H](CO)NC(=O)[C@@H](N)CCCNC(=O)[C@H](Cc2c[nH]c3ccccc23)NC(=O)[C@H](Cc2ccccc2)NC(=O)[C@H](CO)NC1=O [compound 277] (HELM PEPTIDE1{[Orn].S.R.M.W.Y.L.I.S.F.W}$PEPTIDE1,PEPTIDE1,1:R3-11:R2$$$V2.0)	–
0.7	–	CC[C@H](C)[C@@H]1NC(=O)[C@H](CC(C)C)NC(=O)[C@H](Cc2ccccc2)NC(=O)[C@H](Cc2c[nH]c3ccccc23)NC(=O)[C@@H](N)CCCCNC(=O)CN(CC(=O)O)C(=O)[C@H](Cc2c[nH]c3ccccc23)NC(=O)[C@H](C)NC(=O)[C@H](CS)NC1=O [compound 284]	–
–	< 4.52	CC[C@H](C)[C@@H]1NC(=O)[C@@H](NC(=O)[C@H](CCC(N)=O)NC(=O)[C@H](C)N(C)C(=O)[C@@H](N)Cc2c[nH]c3ccccc23)CCCCNC(=O)CC[C@@H](C(=O)N[C@@H](Cc2c[nH]cn2)C(=O)N[C@H](C(=O)N[C@@H](CCC(N)=O)C(=O)N[C@@H](CCCNC(=N)N)C(=O)N[C@H](C(=O)N[C@@H](Cc2c[nH]c3ccccc23)C(=O)NCC(N)=O)C(C)C)C(C)C)NC(=O)[C@H](CC(=O)O)NC(=O)[C@H](CC2CCCCC2)NC1=O [compound 406] (HELM PEPTIDE1{W.[meA].Q.K.I.[Cha].D.E.H.V.Q.R.V.W.G.[am]}$PEPTIDE1,PEPTIDE1,4:R3-8:R3$$$V2.0)	–
–	< 4.52	CC[C@H](C)[C@@H]1NC(=O)[C@@H](NC(=O)[C@H](CCC(N)=O)NC(=O)[C@H](C)N(C)C(=O)[C@H](Cc2c[nH]c3ccccc23)NC(C)=O)CCCCNC(=O)CC[C@@H](C(=O)N[C@@H](Cc2c[nH]cn2)C(=O)N[C@H](C(=O)N[C@@H](CCC(N)=O)C(=O)N[C@@H](CCCNC(=N)N)C(=O)N[C@H](C(=O)N[C@@H](Cc2c[nH]c3ccccc23)C(=O)NCC(N)=O)C(C)C)C(C)C)NC(=O)[C@H](CC(=O)O)NC(=O)[C@H](CC2CCCCC2)NC1=O [compound 407] (HELM PEPTIDE1{[ac].W.[meA].Q.K.I.[Cha].D.E.H.V.Q.R.V.W.G.[am]}$PEPTIDE1,PEPTIDE1,5:R3-9:R3$$$V2.0)	–
–	–	CC[C@H](C)[C@@H]1NC(=O)[C@@H](NC(=O)[C@H](CCC(N)=O)NC(=O)[C@H](C)N(C)C(=O)[C@H](Cc2c[nH]c3ccccc23)NC(=O)COc2ccccc2)CCCCNC(=O)CC[C@@H](C(=O)N[C@@H](Cc2c[nH]cn2)C(=O)N[C@H](C(=O)N[C@@H](CCC(N)=O)C(=O)N[C@@H](CCCNC(=N)N)C(=O)N[C@H](C(=O)N[C@@H](Cc2c[nH]c3ccccc23)C(=O)NCC(N)=O)C(C)C)C(C)C)NC(=O)[C@H](CC(=O)O)NC(=O)[C@H](CC2CCCCC2)NC1=O [compound 408] (HELM PEPTIDE1{[O=C(COc1ccccc1)[*:2]].W.[meA].Q.K.I.[Cha].D.E.H.V.Q.R.V.W.G.[am]}$PEPTIDE1,PEPTIDE1,5:R3-9:R3$$$V2.0)	< 4.52
0.7	5.00 to 6.00	CC[C@H](C)[C@H](NC(=O)[C@H](CO)NC(=O)[C@H](CCC(=O)O)NC(=O)[C@@H]1CCCN1C(=O)[C@H](CC(C)C)NC(=O)[C@H](CCCNC(=N)N)NC(=O)CCNC(C)=O)C(=O)N[C@@H](CC(C)C)C(=O)N[C@@H](CC(=O)O)C(=O)N[C@@H](CCC(=O)O)C(=O)N[C@@H](Cc1c[nH]cn1)C(=O)N[C@@H](Cc1c[nH]c2ccccc12)C(=O)N[C@@H](CCC(N)=O)C(=O)N[C@@H](CCCNC(=N)N)C(=O)N[C@H](C(=O)N[C@@H](Cc1c[nH]c2ccccc12)C(=O)N1CCC[C@H]1C(N)=O)C(C)C [compound 411] (HELM PEPTIDE1{[ac].[bAla].R.L.P.E.S.I.L.D.E.H.W.Q.R.V.W.P.[am]}$$$$V2.0)	–
0.7	> 6.40	CC[C@H](C)[C@@H]1NC(=O)[C@@H](NC(=O)[C@H](CCC(N)=O)NC(=O)[C@H](C)N(C)C(=O)[C@H](Cc2c[nH]c3ccccc23)NC(C)=O)CCCCNC(=O)CC[C@@H](C(=O)N[C@@H](Cc2c[nH]cn2)C(=O)N[C@H](C(=O)NC(C)(C)C(=O)N[C@@H](CCCNC(=N)N)C(=O)N[C@H](C(=O)N[C@@H](Cc2c[nH]c3ccccc23)C(=O)NCC(N)=O)C(C)C)C2CCCCC2)NC(=O)[C@H](CC(=O)O)NC(=O)[C@H](CC(C)C)NC1=O [compound 414] (HELM PEPTIDE1{[ac].W.[meA].Q.K.I.L.D.E.H.[O=C([C@@H](N[*:1])C1CCCCC1)[*:2]].[Aib].R.V.W.G.[am]}$PEPTIDE1,PEPTIDE1,5:R3-9:R3$$$V2.0)	–
0.7	> 6.40	CC[C@H](C)[C@@H]1NC(=O)[C@@H](NC(=O)[C@H](CCC(N)=O)NC(=O)[C@H](C)N(C)C(=O)[C@@H](N)Cc2c[nH]c3ccccc23)CCCCNC(=O)CC[C@@H](C(=O)N[C@@H](Cc2c[nH]cn2)C(=O)N[C@H](C(=O)N[C@@H](CO)C(=O)N[C@@H](CCCNC(=N)N)C(=O)N[C@H](C(=O)N[C@@H](Cc2c[nH]c3ccccc23)C(=O)NCC(N)=O)C(C)C)C2CCCCC2)NC(=O)[C@H](CC(=O)O)NC(=O)[C@H](CC(C)C)NC1=O [compound 415] (HELM PEPTIDE1{W.[meA].Q.K.I.L.D.E.H.[O=C([C@@H](N[*:1])C1CCCCC1)[*:2]].S.R.V.W.G.[am]}$PEPTIDE1,PEPTIDE1,4:R3-8:R3$$$V2.0)	–
0.7	> 6.40	CC[C@H](C)[C@@H]1NC(=O)[C@@H](NC(=O)[C@H](CCC(N)=O)NC(=O)[C@H](C)N(C)C(=O)[C@H](Cc2c[nH]c3ccccc23)NC(C)=O)CCCCNC(=O)CC[C@@H](C(=O)N[C@@H](Cc2c[nH]cn2)C(=O)N[C@H](C(=O)N[C@@H](CO)C(=O)N[C@@H](CCCNC(=N)N)C(=O)N[C@H](C(=O)N[C@@H](Cc2c[nH]c3ccccc23)C(=O)NCC(N)=O)C(C)C)C2CCCCC2)NC(=O)[C@H](CC(=O)O)NC(=O)[C@H](CC(C)C)NC1=O [compound 416] (HELM PEPTIDE1{[ac].W.[meA].Q.K.I.L.D.E.H.[O=C([C@@H](N[*:1])C1CCCCC1)[*:2]].S.R.V.W.G.[am]}$PEPTIDE1,PEPTIDE1,5:R3-9:R3$$$V2.0)	–
